Source: patent US20060229265A1, “Nicotinamide riboside and analogues thereof” (priority 2005, published 2006)

What was measured:
[1] = tested on: Swiss Albino mice; assay: 7 day repeat dose tolerance study in mice; assay type: in vivo; details: 1000, 500 or 300 mg/kg in PBS, IP, 7 consecutive days; male mice
Method: Groups of male Swiss Albino mice (6 mice per dosing group) were dosed with either NMN dissolved in phosphate buffered saline (PBS) at 1000 mg/kg, 500 mg/kg, or 300 mg/kg or vehicle control (PBS) via intraperitoneal injection (IP) for 7 consecutive days. The evaluation criteria used to assess toxicity included daily clinical observations and weight gain.

[2] = Stability in rat plasma / on extraction with organic solvent (LC/MS); assay type: in vitro ADME
Method: Duplicate sets of standard curves of triacetoxy nicotinamide riboside, NMN and nicotinamide riboside in rat plasma were extracted by protein precipitation. Due to sensitivities of compounds to the organic solvent used in extraction, two separate extractions were performed on the standards. The standards were extracted with ACN to obtain triacetoxy nicotinamide riboside and nicotinamide riboside standards, and extracted with MeOH to obtain NMN standards. The standards were analyzed through LC/MS. Due to varying chromatographic properties of the compounds, two separate methods and columns were employed to resolve the compounds. The triacetoxy nicotinamide riboside standards (ACN extraction) were run on an YMC ODS-AQ 2.0×100 mm column, while the NMN standards (MeOH extraction) and nicotinamide riboside standards (ACN extraction) were run on an YMC ODS-AQ 4.5×150 mm column. The resolution procedures were as follows: • 50 uL aliquots of each sample were taken in replicates of four. • Added 200 uL of organic solvent to each sample. • Vortexed samples and centrifuged at 5000 g's for 10 minutes. • Transferred supernatant to new tubes (200 uL), and dried down in Speed-Vac. • Reconstituted samples in 200 uL 95:5 ddH2O:ACN, and vortexed 10 minutes on platform vortexer at setting 10. […] Though the curves may be quantitated separately, they cannot be quantitated together. […]

[3] = tested on: retinal ganglion cells (RGCs); assay: Neuroprotection of retinal ganglion cells in EAE mice with acute optic neuritis (intravitreal treatment); details: for RGC numbers (FG-labeled cells in 12 standardized fields per retina): EAE eyes with optic neuritis; for Neuroprotection for RGCs during acute optic neuritis in EAE: dose-dependent manner
Method: Study outline: The neuroprotective effects of nicotinamide riboside were examined in EAE mice with optic neuritis. […] To induce EAE, mice were immunized several days later with 300 μg PLP emulsified in complete Freund's adjuvant (CFA), and control mice (without EAE) were mock-immunized with phosphate buffered saline (PBS) in CFA. All mice received 200 ng intraperitoneal pertussis toxin (PT) on the day of immunization (day 0) and again on day 2.
Eyes were treated with nicotinamide riboside by intravitreal (ivt) injections with a volume of 0.8 μl/injection of a stock solution of either 0.1 M or 0.4 M nicotinamide riboside in PBS (Groups 2, 4 and 5). […] Treament with nicotinamide riboside, as well as PBS control injections, were given ivt on days 0, 4, 7 and 11. Mice were scored daily for clinical EAE, and were sacrificed on day 14 by overdose with ketamine and xylazine.
Retinas were dissected and whole-mounted for fluorescent microscopy. RGC numbers were quantified by counting FG-labeled cells in 12 standardized fields in each retina. Optic nerves were dissected and processed for histology. Cut sections stained by H & E were evaluated for the presence of inflammatory cells to determine acute optic neuritis. RGCs were compared between PBS-treated and nicotinamide riboside-treated eyes with optic neuritis to determine whether nicotinamide riboside prevents loss of neurons.

For `NC(=O)c1ccc[n+]([C@@H]2O[C@H](COP(=O)([O-])O)[C@@H](O)[C@H]2O)c1` [NMN, nicotinamide mononucleotide], the “Clinical signs of toxicity” value [1] was “None of the animals showed clinical signs of toxicity” and the “Weight gain by study termination” value [1] was “All animals in the study gained weight”.

In the case of `CC(=O)OCC1OC([n+]2cccc(C(N)=O)c2)C(OC(C)=O)C1OC(C)=O` (stereo not shown) [Triacetoxy nicotinamide riboside, triacetoxy nicotinamide riboside], the “Hydrolysis on extraction from rat plasma” value ([2]; extracted with ACN, compared with MeOH) is reported as “less strongly so” and the “Hydrolysis on extraction from rat plasma” value ([2]; extracted with MeOH) is reported as “hydrolyzes into nicotinamide riboside”.

For `NC(=O)c1ccc[n+]([C@@H]2O[C@H](CO)[C@@H](O)[C@H]2O)c1` [nicotinamide riboside], the “RGC numbers (FG-labeled cells in 12 standardized fields per retina)” value ([3]; 100 mM nicotinamide riboside stock, 0.8 μl ivt on days 0, 4, 7, 11 (estimated ocular 19 mM), day 14, Group 4, PBS-treated 268±59, control 691±81) was 505±36 RGCs, the “RGC numbers (FG-labeled cells in 12 standardized fields per retina)” value ([3]; 400 mM nicotinamide riboside stock, 0.8 μl ivt on days 0, 4, 7, 11 (estimated ocular 76 mM), day 14, Group 5, p<0.01) was 710±67 RGCs and the “Incidence of optic neuritis, treated mice vs. controls” value ([3]; EAE mice, ivt treatment) was “did not differ”. The “Inflammatory cell infiltration (optic nerve)” value ([3]; EAE mice, ivt treatment) was “does not prevent”, the “Clinical EAE, treated mice vs. controls” value ([3]; EAE mice, ivt treatment, scored daily) was “did not differ” and the “Neuroprotection for RGCs during acute optic neuritis in EAE” value [3] was “effective”. The “Neuroprotection for RGCs during acute optic neuritis in EAE” value ([3]; listed as Nicotinamide riboside) was “neuroprotective”, the “Toxicity to RGCs” value ([3]; mouse, in vivo) was “not toxic” and the “Difference in RGC numbers between control eyes and non-EAE eyes treated” value ([3]; non-EAE eyes, ivt treatment (Group 2) vs. untreated control (Group 1), day 14) was “no difference”.
